Laboratory results reported in US12673961B2 (Agios Pharmaceuticals, Inc., priority 2022, dated 2026).

molecular target: T1, human PAH with the R408W mutation (Homo sapiens, UniProt P00439, R408W); experiment: Cell Based Phenylalanine Flux Assay; parameters: scale not given here; conditions: A375 cells expressing R408W PAH; 24 hrs with compound, then 20 μM sepiapterin and 800 μM 13C9,15N-Phenylalanine for 4 hours; 13C-Tyrosine in media by LC-MS; average where tested multiple times;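 note: Ten-point dose curve from 2-fold serial dilutions, run in duplicate at 0.5% DMSO final, tracer step used 20 µM sepiapterin and 800 µM labeled phenylalanine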
T1 construct: expressed in transfected cells
T1 sequence (P00439 1-452 R408W): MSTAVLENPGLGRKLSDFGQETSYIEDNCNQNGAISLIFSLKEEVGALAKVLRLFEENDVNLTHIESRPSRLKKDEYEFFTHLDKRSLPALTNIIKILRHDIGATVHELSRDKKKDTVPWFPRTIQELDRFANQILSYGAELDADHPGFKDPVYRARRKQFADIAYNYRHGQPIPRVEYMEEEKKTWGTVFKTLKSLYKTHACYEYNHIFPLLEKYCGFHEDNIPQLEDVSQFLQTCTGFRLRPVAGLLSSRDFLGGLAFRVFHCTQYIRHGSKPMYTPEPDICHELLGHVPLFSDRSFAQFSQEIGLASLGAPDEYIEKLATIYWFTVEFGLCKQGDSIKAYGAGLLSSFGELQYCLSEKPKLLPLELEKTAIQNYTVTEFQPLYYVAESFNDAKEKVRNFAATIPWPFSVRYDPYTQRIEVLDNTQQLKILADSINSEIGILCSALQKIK

AC50 | Compound
E, E | Cc1cccn2nc(C3c4nc[nH]c4CCN3C(=O)c3ocnc3C(F)(F)F)cc12 (centres unmarked)
E, E | FC(F)c1cccn2nc(C3c4nc[nH]c4CCN3c3nnc(-c4ccncn4)o3)cc12 (centres unmarked)

same assay, conditions: A375 cells expressing R408W PAH; 24 hrs with compound, then 20 μM sepiapterin and 800 μM 13C9,15N-Phenylalanine for 4 hours; 13C-Tyrosine in media by LC-MS; average where tested multiple times; read-out: AC50

Compound | AC50 [nM]
O=C(C1CC1)N1CCc2[nH]cnc2[C@H]1c1cc2c(F)cccn2n1 (single isomer, unassigned) | > 5000
Cn1cnc(-c2nnc(C(=O)N3CCc4[nH]cnc4C3c3cc4cccc(C(F)F)n4n3)o2)c1 (centres unmarked) | 1000 to 5000

same assay, conditions: A375 cells expressing human R408W PAH; 24 hrs compound incubation; 13C-Tyrosine by LC-MS; average where tested multiple times; read-out: AC50

Compound | AC50 [nM]
Cc1cccc2cc([C@@H]3c4nc[nH]c4CCN3C(=O)c3oc([C@@H](C)O)nc3C(F)F)nn12 [Example 1164, (4-(difluoromethyl)-2-((R)-1-hydroxyethyl)oxazol-5-yl)((S)-4-(7-methylpyrazolo [1,5-a]pyridin-2-yl)-6,7-dihydro-1H-imidazo[4,5-c]pyridin-5(4H)-yl)methanone] | < 500
Cc1cccn2nc([C@@H]3c4nc[nH]c4CCN3C(=O)c3oc(C4(O)CC4)nc3C(F)F)cc12 [Example 1220, (S)-(4-(difluoromethyl)-2-(1-hydroxycyclopropyl)oxazol-5-yl)(4-(4-methylpyrazolo[1,5-a]pyridin-2-yl)-6,7-dihydro-1H-imidazo[4,5-c]pyridin-5(4H)-yl)methanone] | < 500

Other lines, results leading:

AC50 [nM] | Compound
500 to 1000 | Cn1cnc(-c2nnc(C(=O)N3CCc4[nH]cnc4C3c3cc4c(C(F)(F)F)cccn4n3)o2)c1 (stereo in doubt) [Example 934, (S)-(5-(1-methyl-1H-imidazol-4-yl)-1,3,4-oxadiazol-2-yl)(4-(4-(trifluoromethyl)pyrazolo[1,5-a]pyridin-2-yl)-6,7-dihydro-1H-imidazo [4,5-c]pyridin-5(4H)-yl)methanone]
500 to 1000 | Cc1ccn2nc([C@H]3c4nc[nH]c4CCN3C(=O)c3cnco3)cc2c1 [Example 1184, (R)-(4-(5-methylpyrazolo [1,5-a]pyridin-2-yl)-6,7-dihydro-1H-imidazo[4,5-c]pyridin-5(4H)-yl)(oxazol-5-yl)methanone]

same assay, conditions: A375 cells expressing human R408W PAH; 24 hrs with compound, then sepiapterin and 13C9,15N-Phenylalanine for 4 hours; 13C-Tyrosine by LC-MS; average where tested multiple times; read-out: AC50

Compound | AC50 [nM]
CC(C)c1cccn2nc([C@@H]3c4nc[nH]c4CCN3c3ccc(C(F)(F)F)cn3)cc12 [Example 2148, (S)-4-(4-isopropylpyrazolo [1,5-a]pyridin-2-yl)-5-(5-(trifluoromethyl)pyridin-2-yl)-4,5,6,7-tetrahydro-1H-imidazo[4,5-c]pyridine] | < 500
Cc1cccn2nc([C@H]3c4nc[nH]c4CCN3c3nnc(-c4cccnc4F)o3)cc12 [Example 2265, (R)-2-(2-fluoropyridin-3-yl)-5-(4-(4-methylpyrazolo[1,5-a]pyridin-2-yl)-1,4,6,7-tetrahydro-5H-imidazo[4,5-c]pyridin-5-yl)-1,3,4-oxadiazole] | > 5000
CN(C)c1ccc2c(C(=O)N3CCc4[nH]cnc4[C@H]3c3cc4c(F)cccn4n3)cnn2c1 [Example 1772, (S)-(6-(dimethylamino)pyrazolo[1,5-a]pyridin-3-yl)(4-(4-fluoropyrazolo[1,5-a]pyridin-2-yl)-6,7-dihydro-1H-imidazo[4,5-c]pyridin-5(4H)-yl)methanone] | 500 to 1000
Cc1cccc2cc([C@H]3c4nc[nH]c4CCN3C(=O)c3ocnc3C3CC3)nn12 [Example 2071, (R)-(4-cyclopropyloxazol-5-yl)(4-(7-methylpyrazolo[1,5-a]pyridin-2-yl)-1,4,6,7-tetrahydro-5H-imidazo[4,5-c]pyridin-5-yl)methanone] | > 5000
Fc1cccc(F)c1-c1nnc(N2CCc3[nH]cnc3[C@@H]2c2cc3cccc(Cl)n3n2)o1 [Example 2088, (R)-2-(4-(7-chloropyrazolo [1,5-a]pyridin-2-yl)-1,4,6,7-tetrahydro-5H-imidazo [4,5-c]pyridin-5-yl)-5-(2,6-difluorophenyl)-1,3,4-oxadiazole] | > 5000
Cc1cnn(C)c1-c1nnc(C(=O)N2CCc3[nH]cnc3[C@H]2c2cc3c(C(F)F)cccn3n2)o1 [Example 1568, (S)-(4-(4-(difluoromethyl)pyrazolo[1,5-a]pyridin-2-yl)-6,7-dihydro-1H-imidazo [4,5-c]pyridin-5(4H)-yl)(5-(1,4-dimethyl-1H-pyrazol-5-yl)-1,3,4-oxadiazol-2-yl)methanone] | < 500
Cc1c(-c2nnc(C(=O)N3CCc4[nH]cnc4[C@@H]3c3cc4c(C(C)C)cccn4n3)o2)cnn1C [Example 1949, (R)-(5-(1,5-dimethyl-1H-pyrazol-4-yl)-1,3,4-oxadiazol-2-yl)(4-(4-isopropylpyrazolo [1,5-a]pyridin-2-yl)-1,4,6,7-tetrahydro-5H-imidazo[4,5-c]pyridin-5-yl)methanone] | 1000 to 5000

The next lines start with the values.

AC50 [nM] | Compound
< 500 | Cc1cc(-c2nnc(C(=O)N3CCc4[nH]cnc4[C@H]3c3cc4cccc(F)n4n3)o2)nn1C [Example 1565, (S)-(5-(1,5-dimethyl-1H-pyrazol-3-yl)-1,3,4-oxadiazol-2-yl)(4-(7-fluoropyrazolo[1,5-a]pyridin-2-yl)-6,7-dihydro-1H-imidazo[4,5-c]pyridin-5(4H)-yl)methanone]
500 to 1000 | (S)-(6-(methoxymethyl) pyrazolo[1,5-a]pyridin-3-yl)(4- (4-methylpyrazolo[1,5-a] pyridin-2-yl)-6,7-dihydro-1H- imidazo[4,5-c]pyridin- 5(4H)-yl)methanone [Example 1624]
500 to 1000 | Cc1ncccc1-c1nnc(N2CCc3[nH]cnc3[C@H]2c2cc3cccc(Cl)n3n2)o1 [Example 2330, (S)-2-(4-(7-chloropyrazolo [1,5-a]pyridin-2-yl)-1,4,6,7-tetrahydro-5H-imidazo [4,5-c]pyridin-5-yl)-5-(2-methylpyridin-3-yl)-1,3,4-oxadiazole]
500 to 1000 | Clc1cccc2cc([C@@H]3c4nc[nH]c4CCN3c3nnc(-c4ccccn4)o3)nn12 [Example 1639, (S)-2-(4-(7-chloropyrazolo [1,5-a]pyridin-2-yl)-6,7-dihydro-1H-imidazo[4,5-c]pyridin-5(4H)-yl)-5-(pyridin-2-yl)-1,3,4-oxadiazole]
< 500 | Cc1cccc(-c2nnc(C(=O)N3CCc4[nH]cnc4[C@H]3c3cc4c(C)cccn4n3)o2)n1 [Example 1429, (S)-(4-(4-methylpyrazolo [1,5-a]pyridin-2-yl)-6,7-dihydro-1H-imidazo[4,5-c]pyridin-5(4H)-yl)(5-(6-methylpyridin-2-yl)-1,3,4-oxadiazol-2-yl)methanone]
< 500 | CC(C)c1cccn2nc([C@@H]3c4nc[nH]c4CCN3C(=O)c3nnc(-c4ncccc4F)o3)cc12 [Example 1906, (S)-(5-(3-fluoropyridin-2-yl)-1,3,4-oxadiazol-2-yl)(4-(4-isopropylpyrazolo[1,5-a]pyridin-2-yl)-1,4,6,7-tetrahydro-5H-imidazo[4,5-c]pyridin-5-yl)methanone]
< 500 | O=C(c1cnn2cc(-c3ccccn3)ccc12)N1CCc2[nH]cnc2[C@H]1c1cc2c(C(F)(F)F)cccn2n1 [Example 1550, (S)-(6-(pyridin-2-yl)pyrazolo [1,5-a]pyridin-3-yl)(4-(4-(trifluoromethyl)pyrazolo [1,5-a]pyridin-2-yl)-6,7-dihydro-1H-imidazo[4,5-c]pyridin-5(4H)-yl)methanone]
> 5000 | Cn1ccc(-c2nnc(C(=O)N3CCc4[nH]cnc4[C@@H]3c3cc4c(Br)cccn4n3)o2)n1 [Example 1888, (R)-(4-(4-bromopyrazolo [1,5-a]pyridin-2-yl)-1,4,6,7-tetrahydro-5H-imidazo[4,5-c]pyridin-5-yl)(5-(1-methyl-1H-pyrazol-3-yl)-1,3,4-oxadiazol-2-yl)methanone]
